How the values were obtained:
[1] = Changes over time of Z to E transition by 19F NMR; format: physicochemical; conditions: light 505 nm, 100 mM in DMSO
Description: We can observe that for electromagnetic radiation in the range of wavelengths 390 nm to 610 nm, transitions from E to Z of about 0–76% are obtained. The best results for all compounds are in visible wavelengths 505 nm or 525 nm (30.59–75.44%). From analyzing Figure 2 we can draw the following conclusions: all synthesized compounds undergo switching under visible light (this is important because UV radiation can damage the DNA of cells, inhibiting replication and, as a result, preventing cell division). For the 2,6-difluoro substituents (17i), (17j), (17k), and (17l) with values of 74.84%, 73.2%, 74.39%, and 75.44%, respectively, the largest share of the Z configuration is at (525 nm) and, for the rest of (17a), (17b), (17c), (17e), (17f), and (17g), it is in range of 30.57–47.13% at 505 nm. […] Multiple cycles of photoreversible switching under alternating green and blue light irradiation, with no significant photobleaching or degradation, confirmed the repeatable and robust photochromic conversion of the synthesized azobenzenes (Figure 2b). Then we measured changes over time (transitions from Z to E, upon irradiation with 505 nm for (17a–17c) and (17e–17g), and 525 nm for (17i–17l) compounds (Figure 3, and see Section S4.3 in Supplementary Materials).

[2] = UV–VIS spectra of E/Z isomers in DMSO; format: physicochemical; conditions: for Δ λmax n→π*: between E and Z isomers
Protocol: For this purpose, the UV–VIS spectra were measured for all synthesized hybrids (17a–17l) at concentrations from 20 to 500 µM in dimethyl sulfoxide (DMSO) in light at λ 505 nm and for (17a–17c), (17e–17g), and (17i–17l) at λ 525 nm, respectively, as detailed in Table 1 (see Section S4.4 in Supplementary Materials).

PC-3 cells [3] = test: Cell cycle analysis by flow cytometry, PC-3; format: cell-based, human; conditions: 24 h
Protocol: The BJ or PC-3 cells were treated as described previously, with the exception that 0.15 × 10^6 cells per well were seeded in 6-well plates. After 24 h of treatment, cells were harvested by trypsinization (Biowest, Nuaillé, France, L0931), washed twice, resuspended in PBS, and added to cold 70% ethanol for overnight fixation at −20 °C. Subsequently, cells were centrifuged and resuspended in PBS containing 5 µg/mL of propidium iodide in PBS (Sigma-Aldrich, St. Louis, MO, USA, 4170), 0.1% Triton X-100, and 10 µg/mL of DNAse-free RNAse (A&A Biotechnology, Gdansk, Poland, 1006-10) in the dark for 4 h at 37 °C. FACS analysis was performed using a FACSCanto II flow cytometer and FACSDiva, version 9.0 software (BD Biosciences, San Jose, CA, USA). Flow rate was set to about 1000 events/cells per second. Signals from at least 10,000 events per sample were captured. The percentages of PC-3 cells in cell cycle phases (G0/G1, S, and G2/M) were determined using ModFit LT 4.1.7 (Verity Software House, Topsham, ME, USA).

PC-3 cells [4] = test: MTS cell proliferation assay, PC-3; format: cell-based, human
Protocol: Human BJ fibroblasts (American Type Cell Culture Collection, Manassas, VA, USA, CRL-2522) and human prostate cancer cell line PC-3 (American Type Cell Culture Collection, Manassas, VA, USA, CRL-1435), derived from bone metastases, were routinely grown in […]) Medium (ThermoFisher, Waltham, MA, USA, 21127-022) and supplemented with heat-inactivated 10% Fetal Bovine Serum (Biowest, France, […]) and 1% antibiotic solution (Biowest, Nuaillé, France, L0022), in a humidified 5% CO2 atmosphere at 37 °C. Cells were used between 3 and 20 passages. The 96-well plates were prepared by seeding 5 × 10^3 or 2.5 × 10^3 cells per well, for 24 and 48 h treatments, respectively, with at least five technical and two biological repeats. […] The cells were treated with either the Z conformer of 17j, with continuous illumination with 525 nm light, or the E conformer. The Z conformer was prepared by illuminating its DMSO solution with 525 nm light overnight. The cell proliferation was analyzed with CellTiter Aqueous One Solution Cell Proliferation MTS (3-(4,5-dimethylthiazol-2-yl)-5-(3-carboxymethoxyphenyl)-2-(4-sulfophenyl)-2H-tetrazolium) Assay (Promega, Madison, WI, USA, G5430) after 24 or 48 h of treatment. The absorbance was measured at 490 and 670 nm with FLUOStar Omega plate reader (BMG LABTECH GmbH, Ortenberg, Germany). The statistical analysis was performed within R 4.5.1 project. […] The log-logistic four parametric model (4PL), with the lower limit boundary set to 0 and group fitting, was used, as available in the drc package, to fit cell proliferation data. […] The assessment metrics for model goodness of fit were performed with functions available in the drc package and with custom ones. When appropriate, the delta method was applied to obtain error of central tendency. To assess the goodness of fit for each of the biological replicates, deviance R^2 (DR^2) was calculated and assessed. […] The DR^2 was calculated according to the following Equation: 1 - (Dres/Dnull), where Dres-residual deviance and Dnull-null deviance (deviance of the model with mean as a predicted value). The null hypothesis was assessed with the two-way ANOVA with Tukey's post hoc test for multiple comparisons or with the two-way t-test when only two groups were compared. The differences in the cell cycle percentages were assessed with the two-way ANOVA with Tukey's post hoc test.

Z isomer, changes over time ([1]; 0 h) [%]	Z isomer, changes over time ([1]; 1 h) [%]	Z isomer, changes over time ([1]; 2 h) [%]	Z isomer, changes over time ([1]; 3 h) [%]	Z isomer, changes over time ([1]; 4 h) [%]	Z isomer, changes over time ([1]; 5 h) [%]	Z isomer, changes over time ([1]; 6 h) [%]	Z isomer, changes over time ([1]; 7 h) [%]	Z isomer, changes over time ([1]; 8 h) [%]	Δ (Z to E change 0 h to 8 h) [1] [%]	εmax (n→π*) ([2]; E isomer) [dm^3·mol^−1·cm^−1]	λmax n→π* (E) ([2]; E isomer) [nm]	εmax (n→π*) ([2]; Z isomer) [dm^3·mol^−1·cm^−1]	λmax n→π* (Z) ([2]; Z isomer) [nm]	Δ λmax n→π* [2] [nm]	SMILES	percentage of cells in the G2/M phase (PC-3 cells [3]; 20 nM) [%]	percentage of cells in the G2/M phase (PC-3 cells [3]; 60 nM) [%]	normalized asymptote (PC-3 cells [4]; 24 h treatment) [%]	normalized asymptote (PC-3 cells [4]; 48 h treatment) [%]
32.44	31.33	30.37	29.4	28.74	27.66	26.82	26.38	26.02	6.42	–	–	–	–	–	COc1ccc(/C=C/C(=O)c2cccc(/N=N/c3ccc(F)cc3)c2)cc1OC [Compound 17a]	–	–	–	–
46.84	45.35	45.18	44.16	43.55	43.39	43.01	42.31	42.17	4.67	–	–	–	–	–	COc1ccc(/C=C/C(=O)c2cccc(/N=N/c3ccc(F)cc3F)c2)cc1OC [Compound 17e]	–	–	–	–
44.82	43.69	42.89	42.36	41.25	40.61	40.5	39.88	38.78	6.04	–	–	–	–	–	COc1cc(/C=C/C(=O)c2cccc(/N=N/c3ccc(F)cc3F)c2)cc(OC)c1OC [Compound 17g]	–	–	–	–

The remaining lines, values behind:

SMILES	Z isomer, changes over time ([1]; 0 h) [%]	Z isomer, changes over time ([1]; 1 h) [%]	Z isomer, changes over time ([1]; 2 h) [%]	Z isomer, changes over time ([1]; 3 h) [%]	Z isomer, changes over time ([1]; 4 h) [%]	Z isomer, changes over time ([1]; 5 h) [%]	Z isomer, changes over time ([1]; 6 h) [%]	Z isomer, changes over time ([1]; 7 h) [%]	Z isomer, changes over time ([1]; 8 h) [%]	Δ (Z to E change 0 h to 8 h) [1] [%]	εmax (n→π*) ([2]; E isomer) [dm^3·mol^−1·cm^−1]	λmax n→π* (E) ([2]; E isomer) [nm]	εmax (n→π*) ([2]; Z isomer) [dm^3·mol^−1·cm^−1]	λmax n→π* (Z) ([2]; Z isomer) [nm]	Δ λmax n→π* [2] [nm]	percentage of cells in the G2/M phase (PC-3 cells [3]; 20 nM) [%]	percentage of cells in the G2/M phase (PC-3 cells [3]; 60 nM) [%]	normalized asymptote (PC-3 cells [4]; 24 h treatment) [%]	normalized asymptote (PC-3 cells [4]; 48 h treatment) [%]
COc1cc(/C=C/C(=O)c2cccc(/N=N/c3ccc(F)cc3)c2)cc(OC)c1 [Compound 17b]	32.38	32.21	30.2	29.69	28.37	26.74	25.21	24.74	24.03	8.35	688	442.1	898	434.0	8.1	–	–	–	–
COc1cc(/C=C/C(=O)c2cccc(/N=N/c3ccc(F)cc3)c2)cc(OC)c1OC [Compound 17c]	30.59	30.16	28.28	27.14	25.95	25.61	25.18	24.05	23.17	7.42	–	–	–	–	–	–	–	–	–
COc1cc(/C=C/C(=O)c2cccc(/N=N/c3ccc(F)cc3F)c2)cc(OC)c1 [Compound 17f]	47.13	46.61	45.77	44.72	44.28	43.95	43.3	42.6	41.87	5.26	872	441.9	1150	427.9	14.0	–	–	–	–
COc1cc2c(c(OC)c1OC)-c1ccc(OC)c(=O)cc1[C@@H](NC(C)=O)CC2 [colchicine, reference compound]	–	–	–	–	–	–	–	–	–	–	–	–	–	–	–	15.7	54.2	63.8 ± 6.2	51.3 ± 5.7
